{"source": "patent US8652522B2", "about": "“Pharmaceutical composition of an iontophoresis” (Teikoku Seiyaku Co., Ltd., priority 2009, dated 2014)", "key": {"[1]": {"settings": "blood plasma", "method": "(§1) Moreover, the condition of the transdermally administration in association with the treatment of applying current is as follows.\n(§2) This was funneled into a patch comprising an electrode and an adhesion layer, and cooled down at −80° C. to obtain a desired drug product.\nTwo NZ family male rabbits to be devoted to the test was bought from […] LABES Co., Ltd., (Charles River Japan, Inc.). […] The observation of the animal during the preliminary breeding and the test, as to a hair coat, a skin and a excretory substance was carried out every day.\nThe administration route: the transdermally administration in association with the treatment of applying current\nThe radioactivity density assay in the blood plasma was carried out as follows.\nA sample for assay was treated by adding the solubilizing agent, and the measurement of the sample was carried out by using the liquid scintillation counter (LSC-1000, ALOKA). The limit of determinate quantity was two folds of the background, and the lesser value of the limit was determined as ND. The radioactivity density assay in the blood plasma was calculated from the measured value.\nThe radioactivity density is used as indication pointer, the calibrated concentration of the chemical drug converted with unaltered substance was calculated by the following formula. The calibrated concentration of the chemical drug (μg eq./mL)=The radioactivity density in the sample (dpm/mL)/{the amount of the administration radioactivity (dpm)/the amount of the administration chemical drug (μg)}"}, "[2]": {"method": "as §1, §2\nAfter that, an embedded freezing block was directed to the cutter of the microtome stage for mounting (CRYOMACROCUT, Leica), and a femoral region thereof was directed to the front, and a neck region was directed to the backside, and was fixed with being in close contact with the backside of the leg to the stage for mounting. When the stage for mounting of microtome was slid, the cutter was contacted perpendicular with the narrow side of the rectangular, the upper surface of this was chipped off as a sliced segment, the sliced segment was in close contact to the adhesive tape, and removed. This operation was repeated a couple dozens times, it was cleaved from the front portion of the knee to the backside portion, a segment of the administration and current-carrying part was (1) to (7) (from the front to the backside) in order of precedence."}}, "note": "Where two headings read alike, the source gives them in different places.", "data": [{"molecule": "CC1CC2C3CCC4=CC(=O)C=CC4(C)C3(F)C(O)CC2(C)C1(O)C(=O)COP(=O)([O-])[O-].[Na+].[Na+]", "note": "(centres unmarked) [[^3H] Betamethasone-21-phosphate disodium salt]", "values": [{"measurement": "average of drug conversion", "setting": "[1]; 30 min. administration individual, 10 minutes", "result": 0.01, "unit": "μg eq./mL"}, {"measurement": "average of drug conversion", "setting": "[1]; 30 min. administration individual, 20 minutes", "result": 0.03, "unit": "μg eq./mL"}, {"measurement": "average of drug conversion", "setting": "[1]; 30 min. administration individual, 30 minutes", "result": 0.09, "unit": "μg eq./mL"}, {"measurement": "average of drug conversion", "setting": "[1]; 120 min. administration individual, 10 minutes", "result": 0.04, "unit": "μg eq./mL"}, {"measurement": "average of drug conversion", "setting": "[1]; 120 min. administration individual, 20 minutes", "result": 0.09, "unit": "μg eq./mL"}, {"measurement": "average of drug conversion", "setting": "[1]; 120 min. administration individual, 30 minutes", "result": 0.23, "unit": "μg eq./mL"}, {"measurement": "average of drug conversion", "setting": "[1]; 120 min. administration individual, 60 minutes", "result": 0.66, "unit": "μg eq./mL"}, {"measurement": "average of drug conversion", "setting": "[1]; 120 min. administration individual, 90 minutes", "result": 0.91, "unit": "μg eq./mL"}, {"measurement": "average of drug conversion", "setting": "[1]; 120 min. administration individual, 120 minutes", "result": 1.17, "unit": "μg eq./mL"}, {"measurement": "blackened image according to 3H, cingulum of the perimysial tissue (perimysium)", "setting": "[2]; existing up to the reticular dermis located in the inner side of the epidermal tissue", "result": "high density"}, {"measurement": "blackened image according to 3H at a fibrous encapsulation and a synovium membrane", "setting": "[2]; synovial joint, administration time 120 minutes and 30 minutes", "result": "very slight amount"}]}]}
